In ChEMBL document CHEMBL1201862, “PubChem BioAssay data set” (2004):
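A five-concentration, 48-hour dose response in 96-well plates underlies each endpoint, interpolated linearly between surrounding concentrations. Here, GI50 denotes the concentration required for 50% inhibition of growth.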 Activity calls are given as the source filed them. Rule as the data show it: active = GI50 up to about 1.1 µM and inactive = higher.

Tests used:
Assay in all cases: DTP human tumour cell line panel, 48 h
UACC-62 = tested on: UACC-62
SF-295 = tested on: SF-295
NCI-H226 = tested on: NCI-H226
NCI-H460 = tested on: NCI-H460
HCT-116 = tested on: HCT-116
SW-620 = tested on: SW-620
SF-539 = tested on: SF-539
ACHN = tested on: ACHN
NCI-H522 = tested on: NCI-H522
SNB-75 = tested on: SNB-75
HT-29 = tested on: HT-29
786-0 = tested on: 786-0
RXF 393 = tested on: RXF 393
TK-10 = tested on: TK-10
M14 = tested on: M14
OVCAR-3 = tested on: OVCAR-3
SR = tested on: SR

Measured: GI50

CN(C)c1ccc(/C=c2\sc3nc4ccccc4n3c2=O)cc1
inactive: UACC-62 > 100 µM | SF-295 > 100 µM | NCI-H226 > 100 µM | NCI-H460 > 100 µM | HCT-116 > 100 µM | SW-620 > 100 µM | SF-539 > 100 µM | ACHN > 100 µM | NCI-H522 > 100 µM | SNB-75 32.8 µM | HT-29 > 100 µM | 786-0 > 100 µM | RXF 393 77.6 µM | TK-10 > 100 µM | M14 > 100 µM | OVCAR-3 > 100 µM

COC(=O)[C@@H]1C(=O)O[C@@H](c2ccc3c(c2)OCO3)[C@@H]1C(=O)OC.COC(=O)[C@H]1C(=O)O[C@@H](c2ccc3c(c2)OCO3)[C@@H]1C(=O)OC
inactive: UACC-62 > 100 µM | SF-295 > 100 µM | NCI-H226 > 100 µM | NCI-H460 > 100 µM | HCT-116 > 100 µM | SW-620 > 100 µM | SF-539 > 100 µM | ACHN > 100 µM | NCI-H522 > 100 µM | SNB-75 > 100 µM | HT-29 > 100 µM | 786-0 > 100 µM | RXF 393 > 100 µM | TK-10 > 100 µM | M14 > 100 µM | OVCAR-3 > 100 µM | SR > 100 µM

Cc1cc(C)nc(NS(=O)(=O)c2ccc(Nc3c4ccc(Cl)cc4nc4c(C(=O)Nc5ccc(S(N)(=O)=O)cc5)cccc34)cc2)n1
inactive: UACC-62 25 µM | SF-295 18.2 µM | NCI-H460 17.1 µM | HCT-116 16.6 µM | SF-539 17.2 µM | ACHN 32.1 µM | NCI-H522 10.9 µM | SNB-75 20.3 µM | HT-29 24 µM | 786-0 15.2 µM | RXF 393 13.3 µM | TK-10 36.3 µM | M14 17.4 µM | OVCAR-3 15.5 µM | SR 16.6 µM

C/C=C1/C=CC2c3[nH]c4ccccc4c3CCN2C1 (stereo not drawn)
inactive: UACC-62 > 400 µM | SF-295 315 µM | NCI-H226 358 µM | NCI-H460 > 400 µM | HCT-116 223 µM | SW-620 > 400 µM | SF-539 > 400 µM | ACHN > 400 µM | NCI-H522 195 µM | HT-29 > 400 µM | 786-0 > 400 µM | RXF 393 > 400 µM | TK-10 > 400 µM | OVCAR-3 116 µM | SR 331 µM

CCN(CC)CC(C(C)=O)C(c1ccccc1)c1c(O)c2ccccc2oc1=O (stereo not drawn)
inactive: UACC-62 > 100 µM | SF-295 > 100 µM | NCI-H226 > 100 µM | NCI-H460 > 100 µM | HCT-116 > 100 µM | SW-620 > 100 µM | SF-539 > 100 µM | ACHN > 100 µM | NCI-H522 > 100 µM | SNB-75 42.4 µM | HT-29 > 100 µM | 786-0 > 100 µM | RXF 393 > 100 µM | TK-10 > 100 µM | M14 > 100 µM | OVCAR-3 > 100 µM | SR > 100 µM

O=C1OC(/C=C/c2ccccc2)C(=O)C1=O (stereo not drawn)
inactive: UACC-62 > 100 µM | SF-295 > 100 µM | NCI-H226 > 100 µM | NCI-H460 > 100 µM | SW-620 > 100 µM | SF-539 > 100 µM | ACHN > 100 µM | NCI-H522 > 100 µM | SNB-75 > 100 µM | HT-29 > 100 µM | 786-0 > 100 µM | RXF 393 > 100 µM | TK-10 > 100 µM | M14 > 100 µM

COc1ccc(NC(=O)CC/C(CC(=O)c2ccco2)=N/Nc2ccc([N+](=O)[O-])cc2[N+](=O)[O-])cc1
inactive: UACC-62 34.4 µM | SF-295 62.1 µM | NCI-H226 > 100 µM | NCI-H460 > 100 µM | HCT-116 76.2 µM | SW-620 99.8 µM | SF-539 > 100 µM | ACHN > 100 µM | NCI-H522 55 µM | SNB-75 > 100 µM | HT-29 48 µM | 786-0 > 100 µM | RXF 393 75.9 µM | TK-10 > 100 µM | M14 > 100 µM | OVCAR-3 42.6 µM | SR 26.7 µM

COCCCCCC(=O)CP(=O)(OC)OC
inactive: UACC-62 > 100 µM | SF-295 > 100 µM | NCI-H226 > 100 µM | NCI-H460 > 100 µM | HCT-116 > 100 µM | SW-620 > 100 µM | SF-539 > 100 µM | ACHN > 100 µM | NCI-H522 > 100 µM | SNB-75 > 100 µM | HT-29 > 100 µM | 786-0 > 100 µM | RXF 393 > 100 µM | TK-10 > 100 µM | M14 > 100 µM | OVCAR-3 > 100 µM | SR 52 µM
